Source: patent publication US20220370553A1, “PREBIOTIC-INDUCED ANTI-TUMOR IMMUNITY” (Sanford Burnham Prebys Medical Discovery Institute, priority 2019, published 2022)

Columns and labels:
Bifidobacterium spp. = assay: Anaerobic fecal cultures with 1% prebiotic, 16S rDNA quantification; type: cell-based, human; conditions: in two of these cultures
Experimental: (§1) Fecal samples derived from 12 healthy human subjects were cultivated in the presence or absence of 1% prebiotic. 16S rDNA sequences corresponding to Bifidobacterium, Bacteroides and Akkermansia muciniphila were quantified. Data are representative of three independent experiments. Graphs show the mean±s.e.m. *P<0.05, **P<0.005, ***P<0.001, ****P<0.0001 by one-way ANOVA with Tukey's correction.
(§2) Anaerobic fecal cultures. […] Anaerobic cultures (9% H2, 81% N2) were grown statically for 3-4 days at 37° C. and grown to approximate saturation.
(§3) Chemically-defined medium (CDM). CDM contains 50 mM HEPES, 2.2 mM KH2PO4, 10 mM Na2HPO4, 60 mM NaHCO3, 4 mM of each amino acid, except leucine (15 mM), 10 mL ATCC, Trace Mineral Supplement. CDM contained nucleoside bases (100 mg/L), inosine, xanthine, adenine, guanine, cytosine, thymidine and uracil (400 mg/L). CDM contained choline (100 mg/L), ascorbic acid (500 mg/L), lipoic acid (2 mg/L), hemin (1.2 mg/L) and myo-inositol (400 mg/L). Resazurin (1 mg/L) was added to visually monitor dissolved oxygen. The pH of the media was adjusted to 7.4.
(§4) Fecal samples derived from 12 healthy, vegetarian human subjects were cultivated in a chemically-defined medium the presence or absence of 1% prebiotic. Anaerobic cultures (9% H2, 81% N2) were grown statically for 3-4 days at 37° C. and grown to approximate saturation.

A. muciniphila = assay: as above; type: cell-based, human; conditions: in most of the cultures
Experimental: as §1, §2, §3, §4

With mucin the Bifidobacterium spp. (Bifidobacterium spp.) was “not” and the “relative abundance of A. muciniphila” value (A. muciniphila) was “increased”.
